Test results taken from patent US20110104780A1, “ENCAPSULATION OF LIVING CELLS WITHIN AN AEROSOLIZED SOL-GEL MATRIX” (PURDUE RESEARCH FOUNDATION, priority 2008, published 2011).

These compounds were tested on cells coated with sol-gel vapor (assay: Proton efflux at the cellular surface, self referencing electrode). Conditions: 48 hours after coating cells with sol-gel vapor.
Assay type: cell-based
Description: Data relating to oxygen influx and proton efflux were collected using a self referencing electrode apparatus.
Proton efflux is the result of a variety of cellular properties including metabolism.
In the case of [N-]=[N+]=[N-].[Na+] [NaN3], the “proton efflux after addition of metabolic disrupter” value (“proton efflux after addition” for short) is reported as “decreasing efflux”.
In the case of antimycin A, the “proton efflux after addition” value is reported as “increasing efflux”.
In the case of CC[C@H]1/C=C/C=C/C[C@@H](C)[C@H](O)[C@@](C)(O)C(=O)[C@@H](C)[C@H](O)[C@@H](C)C(=O)[C@@H](C)[C@H](O)[C@@H](C)/C=C/C(=O)O[C@@H]2[C@H](C)[C@H](CC1)O[C@]1(CC[C@H](C)[C@H](C[C@@H](C)O)O1)[C@H]2C [oligomycin], the “proton efflux after addition” value is reported as “decreasing efflux”.
